Laboratory results from patent publication US20260337245A1, “POLYPEPTIDE OR ANALOG THEREOF AND USE THEREOF” (Shenzhen Bay Laboratory, priority 2024, published 2026).
Starred links: 1 amine or outer side, 2 acyl side, 3 side chain; linkers in the order of their positions; H or OH if unused. Positions of bridges follow the written chain, without caps; N, C: chain ends. Non-standard residues stand in square brackets, D forms with d. Residues, ends and D or L forms follow the SMILES beside them. X1 = O=C(O)CCCCCCCCCCCCCCCCCCC(=O)N[C@@H](CCCCNC(=O)COCCOCCNC(=O)COCCOCCNC(=O)CCC(=O)N(CCNC(=O)C[*:1])CCNC(=O)C[*:2])C(=O)O; NMeR = CN[C@@H](CCCNC(=N)N)C(=O)O; Hyp = O=C(O)[C@@H]1C[C@@H](O)CN1; hArg = N=C(N)NCCCC[C@H](N)C(=O)O; αMeF = C[C@](N)(Cc1ccccc1)C(=O)O; αMeK = C[C@](N)(CCCCN)C(=O)O; Orn = NCCC[C@H](N)C(=O)O; Aib = CC(C)(N)C(=O)O

What was measured:
[1] = target: T1, AMY3R (Homo sapiens, UniProt P30988); experiment: HTRF cAMP assay, AMY3R; format: cell-based; details: HEK293/pGM-CREB-L-Luc/AMY3R pool, read-out: IC50 of receptor AMY3R
T1 construct: expressed in transfected cells
T1 sequence (P30988 25-474): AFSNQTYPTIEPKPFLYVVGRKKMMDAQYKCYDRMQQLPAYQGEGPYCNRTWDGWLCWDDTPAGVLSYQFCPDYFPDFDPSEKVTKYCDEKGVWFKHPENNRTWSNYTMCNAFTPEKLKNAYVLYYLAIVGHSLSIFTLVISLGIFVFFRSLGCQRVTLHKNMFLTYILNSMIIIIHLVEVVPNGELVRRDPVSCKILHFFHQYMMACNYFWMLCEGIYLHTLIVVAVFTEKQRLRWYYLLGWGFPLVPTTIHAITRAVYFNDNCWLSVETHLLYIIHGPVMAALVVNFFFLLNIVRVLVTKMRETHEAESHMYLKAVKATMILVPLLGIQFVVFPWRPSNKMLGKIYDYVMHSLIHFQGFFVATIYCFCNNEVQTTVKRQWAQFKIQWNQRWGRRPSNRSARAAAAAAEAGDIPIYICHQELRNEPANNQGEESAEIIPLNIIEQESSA
T1 sequence (O60896 24-148 partner): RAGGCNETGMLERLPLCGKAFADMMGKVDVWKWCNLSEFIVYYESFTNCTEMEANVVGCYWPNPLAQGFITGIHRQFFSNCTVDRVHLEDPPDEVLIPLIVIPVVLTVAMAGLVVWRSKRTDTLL
Source text: (§1) 2. The polypeptide derivatives prepared in Example 1 and Example 2 of the present disclosure can bind to the target AMYR and CTR receptors on the cell membrane, activate the receptors and release cAMP. Therefore, the activity of the analyte can be determined by using an HTRF (homogeneous time-resolved fluorescence) method and using a cAMP detection kit. The specific steps were as follows:
(§2) A stable transfected cell line of HEK293/pGM-CREB-L-Luc/AMY3R pool and HEK293/pGM-CREB-L-Luc/CTR pool was constructed. The polypeptide derivatives (i.e., AMY-001 to AMY-041) prepared in Examples 1 and 2 were subjected to 5-fold serial dilution from a maximum of 1000 nM to prepare a dilution series containing 8 to 11 concentration gradients. Cagrilintide and sCT were selected as positive controls for testing, and a dilution series was prepared according to the same method for testing. The test cell lines were selected and treated with cAMP-specific trypsin for digestion, and then suspended with 3 mL of serum-free DMEM medium by pipetting, and the cells were counted. 5 μL of IBMX (prepared with serum-free DMEM medium, 0.5 mM) and test cells (5 μL/7500 cells/well) were sequentially added to a 384-well plate, incubated under the conditions of 37° C., 5% CO2 for 30 minutes, then added with cAMP-d2 (5 μL, 1×) and Anti-cAMP-Cryptate (5 μL, 1×) and placed at room temperature for 1 hour. A HTRF value was determined by a chemiluminescence microplate reader, and the results were recorded. An activation curve was plotted using GraphPad Prism software to calculate an IC50 value of each polypeptide derivative. […] The IC50 values of some polypeptides were exemplarily shown in this example, see Table 3, FIG. 2 and FIG. 3 for details.

[2] = target: T2, CTR (Homo sapiens, UniProt P30988); experiment: HTRF cAMP assay, CTR; format: cell-based; details: HEK293/pGM-CREB-L-Luc/CTR pool, read-out: IC50 of receptor CTR
T2 construct: expressed in transfected cells
T2 sequence (P30988 25-474): T1 sequence (P30988 25-474)
Source text: as §1, §2

Row | Structure (SMILES) | EC50 [1] [pM] | EC50 [2] [pM]
1 | CC(=O)N[C@@H](C)C(=O)N[C@@H](CO)C(=O)N[C@@H](Cc1c[nH]cn1)C(=O)N[C@@H](CC(C)C)C(=O)N[C@@H](CO)C(=O)N[C@H](C(=O)N[C@@H](C)C(=O)N[C@H]1CSCC(=O)NCCN(C(=O)CCC(=O)NCCOCCOCC(=O)NCCOCCOCC(=O)NCCCC[C@H](NC(=O)CCCCCCCCCCCCCCCCCCC(=O)O)C(=O)O)CCNC(=O)CSC[C@@H](C(=O)N[C@@H](CC(C)C)C(=O)N[C@@H](Cc2c[nH]cn2)C(=O)N[C@@H](CCCN)C(=O)N[C@@H](CC(C)C)C(=O)NC(C)(C)C(=O)N[C@@H](CC(=O)O)C(=O)N[C@@](C)(Cc2ccccc2)C(=O)N2CCC[C@H]2C(=O)N[C@@H](CCCNC(=N)N)C(=O)N[C@H](C(=O)N[C@@H](CC(=O)O)C(=O)N[C@H](C(=O)NCC(=O)N[C@@H](C)C(=O)NCC(=O)N[C@@H](CO)C(=O)N2C[C@H](O)C[C@H]2C(N)=O)C(C)C)[C@@H](C)O)NC(=O)[C@H](C)NC(=O)[C@H](CO)NC(=O)[C@H](CC(C)C)NC(=O)[C@H](CCCNC(=N)N)NC(=O)CNC(=O)[C@H](CC(C)C)NC1=O)[C@@H](C)O [AMY-009, Ac-ASHLSTACLGRLSACLH-Orn-L-Aib-D-(αMeF)-PRTDVGAGS-Hyp-NH2] (Ac-ASHLSTACLGRLSACLH[Orn]L[Aib]D[αMeF]PRTDVGAGS[Hyp]-NH2; linker 8-15 via X1) | 41.4 | 89.4
2 | CC(=O)N[C@@H](C)C(=O)N[C@@H](CO)C(=O)N[C@@H](Cc1c[nH]cn1)C(=O)N[C@@H](CC(C)C)C(=O)N[C@@H](CO)C(=O)N[C@H](C(=O)N[C@H]1CSCC(=O)NCCN(C(=O)CCC(=O)NCCOCCOCC(=O)NCCOCCOCC(=O)NCCCC[C@H](NC(=O)CCCCCCCCCCCCCCCCCCC(=O)O)C(=O)O)CCNC(=O)CSC[C@@H](C(=O)N[C@@H](CCC(=O)O)C(=O)N[C@@H](CC(C)C)C(=O)N[C@@H](Cc2c[nH]cn2)C(=O)N[C@@H](CCCCN)C(=O)N[C@@H](CC(C)C)C(=O)NC(C)(C)C(=O)N[C@@H](CC(=O)O)C(=O)N[C@@H](Cc2ccc(O)cc2)C(=O)N2CCC[C@H]2C(=O)N[C@@H](CCCNC(=N)N)C(=O)N[C@H](C(=O)N[C@@H](CC(=O)O)C(=O)N[C@H](C(=O)NCC(=O)N[C@@H](C)C(=O)NCC(=O)N[C@@H](CO)C(=O)N2CCC[C@H]2C(N)=O)C(C)C)[C@@H](C)O)NC(=O)[C@H](CO)NC(=O)[C@H](CC(C)C)NC(=O)[C@H](CCCNC(=N)N)NC(=O)CNC(=O)[C@H](CC(C)C)NC(=O)[C@H](C(C)C)NC1=O)[C@@H](C)O [AMY-002, Ac ASHLSTCVLGRLSCELHKL-Aib-DYPRTDVGAGSP-NH2] (Ac-ASHLSTCVLGRLSCELHKL[Aib]DYPRTDVGAGSP-NH2; linker 7-14 via X1) | 67.1 | 90.6
3 | CC(=O)N[C@@H](C)C(=O)N[C@@H](CO)C(=O)N[C@@H](Cc1c[nH]cn1)C(=O)N[C@@H](CC(C)C)C(=O)N[C@@H](CO)C(=O)N[C@H](C(=O)N[C@@H](C)C(=O)N[C@H](C(=O)N[C@@H](CC(C)C)C(=O)N[C@H]1CSCC(=O)NCCN(C(=O)CCC(=O)NCCOCCOCC(=O)NCCOCCOCC(=O)NCCCC[C@H](NC(=O)CCCCCCCCCCCCCCCCCCC(=O)O)C(=O)O)CCNC(=O)CSC[C@@H](C(=O)N[C@@H](CCCCN)C(=O)N[C@@H](CC(C)C)C(=O)NC(C)(C)C(=O)N[C@@H](CC(=O)O)C(=O)N[C@@H](Cc2ccc(O)cc2)C(=O)N2CCC[C@H]2C(=O)N[C@@H](CCCNC(=N)N)C(=O)N[C@H](C(=O)N[C@@H](CC(=O)O)C(=O)N[C@H](C(=O)NCC(=O)N[C@@H](C)C(=O)NCC(=O)N[C@@H](CO)C(=O)N2CCC[C@H]2C(N)=O)C(C)C)[C@@H](C)O)NC(=O)[C@H](CC(C)C)NC(=O)[C@H](CCC(=O)O)NC(=O)[C@H](C)NC(=O)[C@H](CO)NC(=O)[C@H](CC(C)C)NC(=O)[C@H](CCCNC(=N)N)NC1=O)C(C)C)[C@@H](C)O [AMY-005, Ac-ASHLSTAVLCRLSAELCKL-Aib-DYPRTDVGAGSP-NH2] (Ac-ASHLSTAVLCRLSAELCKL[Aib]DYPRTDVGAGSP-NH2; linker 10-17 via X1) | 198 | 303
4 | CC(=O)N[C@@H](C)C(=O)N[C@@H](CO)C(=O)N[C@@H](Cc1c[nH]cn1)C(=O)N[C@@H](CC(C)C)C(=O)N[C@@H](CO)C(=O)N[C@H](C(=O)N[C@@H](C)C(=O)N[C@H](C(=O)N[C@@H](CC(C)C)C(=O)NCC(=O)N[C@@H](CCCNC(=N)N)C(=O)N[C@@H](CC(C)C)C(=O)N[C@H]1CSCC(=O)NCCN(C(=O)CCC(=O)NCCOCCOCC(=O)NCCOCCOCC(=O)NCCCC[C@H](NC(=O)CCCCCCCCCCCCCCCCCCC(=O)O)C(=O)O)CCNC(=O)CSC[C@@H](C(=O)N[C@@H](CC(=O)O)C(=O)N[C@@H](Cc2ccc(O)cc2)C(=O)N2CCC[C@H]2C(=O)N[C@@H](CCCNC(=N)N)C(=O)N[C@H](C(=O)N[C@@H](CC(=O)O)C(=O)N[C@H](C(=O)NCC(=O)N[C@@H](C)C(=O)NCC(=O)N[C@@H](CO)C(=O)N2CCC[C@H]2C(N)=O)C(C)C)[C@@H](C)O)NC(=O)[C@H](CC(C)C)NC(=O)[C@H](CCCCN)NC(=O)[C@H](Cc2c[nH]cn2)NC(=O)[C@H](CC(C)C)NC(=O)[C@H](CCC(=O)O)NC(=O)[C@H](C)NC1=O)C(C)C)[C@@H](C)O [AMY-008] (Ac-ASHLSTAVLGRLCAELHKLCDYPRTDVGAGSP-NH2; linker 13-20 via X1) | 71.3 | 50.2

Stronger by EC50 [1], values ahead:

Row | EC50 [1] [pM] | EC50 [2] [pM] | Structure (SMILES)
5 | 25.4 | 10.7 | CC(=O)N[C@@H](C)C(=O)N[C@@H](CO)C(=O)N[C@@H](Cc1c[nH]cn1)C(=O)N[C@@H](CC(C)C)C(=O)N[C@@H](CO)C(=O)N[C@H](C(=O)N[C@@H](C)C(=O)N[C@H](C(=O)N[C@@H](CC(C)C)C(=O)NCC(=O)N[C@H]1CSCC(=O)NCCN(C(=O)CCC(=O)NCCOCCOCC(=O)NCCOCCOCC(=O)NCCCC[C@H](NC(=O)CCCCCCCCCCCCCCCCCCC(=O)O)C(=O)O)CCNC(=O)CSC[C@@H](C(=O)N[C@@H](CC(C)C)C(=O)NC(C)(C)C(=O)N[C@@H](CC(=O)O)C(=O)N[C@@H](Cc2ccc(O)cc2)C(=O)N2CCC[C@H]2C(=O)N[C@@H](CCCNC(=N)N)C(=O)N[C@H](C(=O)N[C@@H](CC(=O)O)C(=O)N[C@H](C(=O)NCC(=O)N[C@@H](C)C(=O)NCC(=O)N[C@@H](CO)C(=O)N2CCC[C@H]2C(N)=O)C(C)C)[C@@H](C)O)NC(=O)[C@H](Cc2c[nH]cn2)NC(=O)[C@H](CC(C)C)NC(=O)[C@H](CCC(=O)O)NC(=O)[C@H](C)NC(=O)[C@H](CO)NC(=O)[C@H](CC(C)C)NC1=O)C(C)C)[C@@H](C)O [AMY-006, Ac-ASHLSTAVLGCLSAELHCL-Aib-DYPRTDVGAGSP-NH2] (Ac-ASHLSTAVLGCLSAELHCL[Aib]DYPRTDVGAGSP-NH2; linker 11-18 via X1)
6 | 13.3 | 35.7 | CC(=O)N[C@@H](C)C(=O)N[C@@H](CO)C(=O)N[C@@H](Cc1c[nH]cn1)C(=O)N[C@@H](CC(C)C)C(=O)N[C@@H](CO)C(=O)N[C@H](C(=O)N[C@@H](C)C(=O)N[C@H]1CSCC(=O)NCCN(C(=O)CCC(=O)NCCOCCOCC(=O)NCCOCCOCC(=O)NCCCC[C@H](NC(=O)CCCCCCCCCCCCCCCCCCC(=O)O)C(=O)O)CCNC(=O)CSC[C@@H](C(=O)N[C@@H](CC(C)C)C(=O)N[C@@H](Cc2c[nH]cn2)C(=O)N[C@@](C)(CCCCN)C(=O)N[C@@H](CC(C)C)C(=O)NC(C)(C)C(=O)N[C@@H](CC(=O)O)C(=O)N[C@@H](Cc2ccc(O)cc2)C(=O)N2CCC[C@H]2C(=O)N(C)[C@@H](CCCNC(=N)N)C(=O)N[C@H](C(=O)N[C@@H](CC(=O)O)C(=O)N[C@H](C(=O)NCC(=O)N[C@@H](C)C(=O)NCC(=O)N[C@@H](CO)C(=O)N2CCC[C@H]2C(N)=O)C(C)C)[C@@H](C)O)NC(=O)[C@H](C)NC(=O)[C@H](CO)NC(=O)[C@H](CC(C)C)NC(=O)[C@H](CCCCNC(=N)N)NC(=O)CNC(=O)[C@H](CC(C)C)NC1=O)[C@@H](C)O [AMY-012, Ac-ASHLSTACLG-homoR-LSACLH-(αMeK)-L-Aib-DYP-(N-Me-R)-TDVGAGSP-NH2] (Ac-ASHLSTACLG[hArg]LSACLH[αMeK]L[Aib]DYP[NMeR]TDVGAGSP-NH2; linker 8-15 via X1)
